The test system of one test is Candida albicans. Kind of test: anti-Candida albicans growth inhibition test in liquid medium (96-well microplates). To be noted: for Activity C.a. (relative activity in relation to Ard1): fold relative to Ard1; for Activity C.a. (relative activity in relation to heliomycin): fold relative to heliomycin. It is filed as cell-based. Here is the method:
(§1) The anti-Candida albicans and anti-Aspergillus fumigatus activities of the different analogues were assessed using a growth inhibition test in liquid medium made in 96-well microplates. The activity of the purified peptides was tested for different dilutions of each peptide and was compared with those of heliomycin and Ard1 quantified under the same conditions.
The activity test was made directly on yeasts derived from a stock frozen at −80° C., in Sabouraud medium containing 15% glycerol. The density of the yeasts in the stock was adjusted to an optical density of 0.4 OD at 600 nm. After slow thawing at room temperature, the yeast suspension was reduced by dilution to an optic density of 1 mOD at 600 nm in Sabouraud medium, and 90 μl of this dilution were deposited in the wells of microtitration plates in the presence of 10 μl of sample to be tested. Control samples were systematically made in which 10 μl of sample were replaced by 10 μl of sterile water. Media sterility was controlled by incubating 10 μl sterile water in the presence of 90 μl of medium. The samples were incubated at 30° C. for 40 h under slight stirring and the antifungal activity was quantified by measuring optic density at 600 nm.

The next test has as its system Aspergillus fumigatus. Kind of test: anti-Aspergillus fumigatus growth inhibition test in liquid medium (96-well microplates). It is filed as cell-based. To be noted: for Activity A.f. (relative activity in relation to Ard1): fold relative to Ard1; for Activity A.f. (relative activity in relation to heliomycin): fold relative to heliomycin. As to the method: as §1
The spores of Aspergillus fumigatus were derived from a stock frozen at −80° C., containing 10^7 spores/ml in a 25% glycerol solution. After slow thawing at room temperature, the spores were placed in suspension in PDB culture medium (12 g Potato Dextrose Broth medium, per […] water). 10 μl of each sample were deposited in the wells of microtitration plates in the presence of 90 μl PDB culture medium supplemented with tetracycline (100 μg/ml) and cefotaxime (1 μg/ml) containing the spores (at a final concentration of 1000 spores/well). Control cultures were systematically made in which 10 μl of sample were replaced by 10 μl of sterile water. Media sterility was controlled by incubating 10 μl sterile water in the presence of 90 μl of medium. The samples were incubated at 37° C. for 24 h to 48 h in a humid atmosphere, and the antifungal activity was quantified by a score of 0 to 9 taking germination account; the size and morphology of the hyphs were determined under the binocular microscope. […].

The test system of test [1] is Candida albicans (IHEM 8060 strain). In words: Candida albicans infected model, lethal in mice (disseminated candidiasis). It is filed as in vivo. To be noted: FIGS. 2-3; for median mortality, time after infection / morbidity score at day 7: 4 injections; for morbidity score at day 7: 50 = all 10 mice healthy. Here is the method:
Heliomycin and its analogues were tested for in vivo antifungal activity in a model infected with Candida albicans, lethal in mice. The pathogenic agent Candida albicans (IHEM 8060 strain) was inoculated by intravenous route (i.v.) at a dose of 2.5×10^6 CFU/mouse. the peptides were administered by i.v. route in 4 injections 6 h, 24 h, 48 h and 72 h after infection. Assessment criteria for activity were evaluation of survival and morbidity at 7 days. The morbidity scores, which take into account general state of health (condition of fur, mobility, hydration) were determined for each mouse with values ranging from 0 to 5 and defined below: 0=dead, 1=moribund, 2=very ill, 3=ill, 4=slightly ill, 5=healthy. The sum of the individual scores was calculated for each group, a score of 50 for a group of 10 mice meaning that all the mice were healthy.
Following a standard protocol, groups of 10 Swiss OF1 male mice weighing 12 g were infected via i.v. route with a dose of 2.5×10^6 CFU/mouse. Heliomycin and Ard1 were administered by i.v. route in 4 injections, 6 h, 24 h, 48 h and 72 h after infection. For each peptide, 2 doses were tested: 10 mg/kg and 30 mg/kg. A placebo group was injected with peptide solvent, 0.9% sodium chloride.
In this experiment, inoculation of the mice with 2.5.10^6 CFU/mouse was 50% lethal at day 5 in the group which received placebo treatment. The first deaths occurred on post-infection day 2.5 and median mortality occurred on post-infection day 5. On day 7, 5 mice were alive and the morbidity score 15/50.
In this experiment, inoculation of Swiss OF1 mice weighing 15 g with 3.10^6 CFU of Candida albicans induces 50% mortality on day 4 after infection in the group treated with the placebo. The first deaths occur 2.5 days after infection, and 100% of the mice were dead on day 5.5.
In this experiment, inoculation of the mice with 2.5.10^6 CFU/mouse was 50% lethal at day 5 and 100% at day 8 for mice in the placebo group. The first death occurred 3 days after infection. The morbidity score fell rapidly below 30/50 (25/50 at day 2.5).
The pEM35 peptide was administered at doses of 10 and 30 mg/kg/injection with 3 daily doses for 4 days (1 h, 5 h and 10 h post-infection on day 0; at 8 h, 14 h and 20 h on days 1, 2 and 3), i.e., daily doses totalling 30 and 90 mg/kg.

“DKLIGSCVWLAVNYTSNCNAECKRRGYKGGHCGSFLNVNCWCET [pEM54, peptide derived from Ard1]”: the “Activity C.a. (relative activity in relation to Ard1)” value with Candida albicans stood at 1. For the same compound, the “Activity A.f. (relative activity in relation to Ard1)” value in the test with Aspergillus fumigatus worked out at 1.
Take “DKLIGSCVWGAVNYTSDCNGECKRRGYKGGHCGSFINVNCWCET [pEM22, peptide derived from heliomycin]”: the “Activity C.a. (relative activity in relation to heliomycin)” value in the test with Candida albicans is given as 1-2. Moreover, the “Activity A.f. (relative activity in relation to heliomycin)” value in the test on Aspergillus fumigatus is 4-8.
On to “DKLIGSCVWGAVNYTSNCNAECKRRGYKGGHCGSFINVNCWCQT [pEM47, peptide derived from Ard1]”, for which, in the test on Candida albicans, the “Activity C.a. (relative activity in relation to Ard1)” value was 2-4. Also, in the test on Aspergillus fumigatus, the “Activity A.f. (relative activity in relation to Ard1)” value came to 8.
Regarding “DKLIGSCVWGAVNYTSNCNAECKRRGYKGGHCGSFANINCWCET [pEM33, peptide derived from Ard1]”, in the test on Candida albicans, the “Activity C.a. (relative activity in relation to Ard1)” value turned out to be 1. The “Activity A.f. (relative activity in relation to Ard1)” value in the test on Aspergillus fumigatus is 1.
As to “DKLIGSCVWGAVNYTSDCNGECKRRGYKGGHCGSFANVNCWCER [pEM7, peptide derived from heliomycin]”, in the test with Candida albicans, the “Activity C.a. (relative activity in relation to heliomycin)” value is listed as 4-8. The “Activity A.f. (relative activity in relation to heliomycin)” value in the test with Aspergillus fumigatus was determined as 1.
In the case of “DKLIGSCVWGAVNYTSDCNGECKRRGYKGGHCGSFANINCWCET [pEM23, peptide derived from heliomycin]”, the “Activity C.a. (relative activity in relation to heliomycin)” value with Candida albicans turned out to be 1. In addition, in the test on Aspergillus fumigatus, the “Activity A.f. (relative activity in relation to heliomycin)” value was 2.
Consider “DKLIGSCVWGAVNYTSDCNGECKRRGYKGGHCGSFLNVNCWCET [pEM25, peptide derived from heliomycin]”, for which the “Activity C.a. (relative activity in relation to heliomycin)” value with Candida albicans turned out to be 10. The “Activity A.f. (relative activity in relation to heliomycin)” value with Aspergillus fumigatus was 6.
On to “NKLIGSCVWGAVNYTSNCNAECKRRGYKGGHCGSFANVNCWCET [pEM40, peptide derived from Ard1]”, for which the “Activity C.a. (relative activity in relation to Ard1)” value in the test with Candida albicans is reported as 2. In addition, the “Activity A.f. (relative activity in relation to Ard1)” value in the test with Aspergillus fumigatus stood at 1.
“NKLIGSCVWGAVNYTSDCNGECKRRGYKGGHCGSFANVNCWCET [pEM37, peptide derived from heliomycin]”: the “Activity C.a. (relative activity in relation to heliomycin)” value in the test with Candida albicans stood at 2.
As to “DKLIGSCVWGAVNYTSNCNAECKRRGYKGGHCGSFLNINCWCET [pEM34, peptide derived from Ard1]”, in the test on Candida albicans, the “Activity C.a. (relative activity in relation to Ard1)” value worked out at 4. For the same compound, the “Activity A.f. (relative activity in relation to Ard1)” value in the test with Aspergillus fumigatus amounted to 4.
Take “NKLIGSCVWGAVNYTSDCNGECKRRGYKGGHCGSFINVNCWCQT [pEM62, peptide derived from heliomycin]”: the “Activity C.a. (relative activity in relation to heliomycin)” value with Candida albicans was 3-6. The “Activity A.f. (relative activity in relation to heliomycin)” value with Aspergillus fumigatus is given as 2-4.
The corresponding values for “DKLIGTCVWGAVNYTSDCNGECKRRGYKGGHCGSFANVNCWCET [pEM38, peptide derived from heliomycin]” are 1 and 1.
In the case of “DKLIGSCVWGAVNYTSNCNAECKRRGYKGGHCGSFINVNCWCET [pEM32, peptide derived from Ard1]”, in the test with Candida albicans, the “Activity C.a. (relative activity in relation to Ard1)” value worked out at 1. In the test with Aspergillus fumigatus, the “Activity A.f. (relative activity in relation to Ard1)” value is given as 2.
For the compound “DKLIGSCVWGAVNYTSDCNGECKRRGYKGGHCGSFANVNCWCQT [pEM21, peptide derived from heliomycin]”, in the test with Candida albicans, the “Activity C.a. (relative activity in relation to heliomycin)” value is 2. The “Activity A.f. (relative activity in relation to heliomycin)” value in the test with Aspergillus fumigatus was 10-20.
Take “DKLIGSCVWLAVNYTSNCNAECKRRGYKGGHCGSFLNVNCWCQT [pEM55, peptide derived from Ard1]”: the “Activity C.a. (relative activity in relation to Ard1)” value with Candida albicans is reported as 1-2. For the same compound, the “Activity A.f. (relative activity in relation to Ard1)” value with Aspergillus fumigatus is 2-7.
Regarding “DKLIGSCVWGAVNYTRDCNGECKRRGYKGGHCGSFANVNCWCET [pEM42, peptide derived from heliomycin]”, the “Activity C.a. (relative activity in relation to heliomycin)” value in the test on Candida albicans turned out to be 8. Also, the “Activity A.f. (relative activity in relation to heliomycin)” value in the test on Aspergillus fumigatus is recorded as 1.
In the case of “DKLIGSCVWGAVNYTRNCNAECKRRGYKGGHCGSFANVNCWCET [pEM50, peptide derived from Ard1]”, the “Activity C.a. (relative activity in relation to Ard1)” value with Candida albicans is listed as 1-2. The “Activity A.f. (relative activity in relation to Ard1)” value in the test with Aspergillus fumigatus turned out to be 1.
“DKLIGSCVWGAVNYTSDCRGECKRRGYKGGHCGSFANVNCWCET [pEM44, peptide derived from heliomycin]”: the “Activity C.a. (relative activity in relation to heliomycin)” value with Candida albicans was 8. The “Activity A.f. (relative activity in relation to heliomycin)” value in the test with Aspergillus fumigatus amounted to 2.
For “DKLIGSCVWGAVNYTTDCNGECKRRGYKGGHCGSFANVNCWCET [pEM43, peptide derived from heliomycin]”, the “Activity C.a. (relative activity in relation to heliomycin)” value in the test on Candida albicans was 1. In addition, the “Activity A.f. (relative activity in relation to heliomycin)” value in the test with Aspergillus fumigatus is 2.
As to “DKLIGSCVWLAVNYTSNCNAECKRRGYKGGHCGSFANVNCWCQT [pEM57, peptide derived from Ard1]”, the “Activity C.a. (relative activity in relation to Ard1)” value in the test with Candida albicans is recorded as 1. Further, the “Activity A.f. (relative activity in relation to Ard1)” value in the test on Aspergillus fumigatus was found to be 8.
The corresponding values for “DKLIGSCVWGAVNYTSNCNAECKRRGYKGGHCGSFINVNCWCER [pEM49, peptide derived from Ard1]” are 3 and 1-2.
As to “NKLIGSCVWGAVNYTSDCNGECKRRGYKGGHCGSFANVNCWCQT [pEM39, peptide derived from heliomycin]”, the “Activity C.a. (relative activity in relation to heliomycin)” value in the test with Candida albicans amounted to 2. Also, in the test on Aspergillus fumigatus, the “Activity A.f. (relative activity in relation to heliomycin)” value was 4-8.
The like results for “NKLIGSCVWGAVNYTSDCNGECKRRGYKGGHCGSFLNVNCWCQT [pEM61, peptide derived from heliomycin]” were, in that order, 5-10 and 3-6.
Consider `Cc1cc(O)c2c3c4c(cc(O)c13)C(C)(C)C(=O)c1c(O)cc(O)c(c1-4)C2=O` [Heliomycin, reference compound], for which, in test [1] (10 mg/kg i.v.), the “median mortality, time after infection” value worked out at 48 h and the “morbidity score at day 7” value is given as 0/50. Also, in test [1] (30 mg/kg i.v.), the “median mortality, time after infection” value was found to be 60 h and the “morbidity score at day 7” value is listed as 5/50. In test [1] (2.5×10^6 CFU/mouse i.v., 10 and 30 mg/kg i.v., 4 injections 6, 24, 48, 72 h, 10 mice, placebo 100% lethal day 4), the “effect on survival rate” value was “no significant effect”.
On to “DKLIGSCVWLAVNYTSNCNAECKRRGYKGGHCGSFANVNCWCET [pEM56, peptide derived from Ard1]”, for which the “Activity C.a. (relative activity in relation to Ard1)” value in the test with Candida albicans was 1-2. Moreover, the “Activity A.f. (relative activity in relation to Ard1)” value in the test on Aspergillus fumigatus is given as 0.5.
In the case of “DKLIGSCVWGAVNYTSRCNAECKRRGYKGGHCGSFANVNCWCET [pEM52, peptide derived from Ard1]”, the “Activity C.a. (relative activity in relation to Ard1)” value in the test with Candida albicans is listed as 1-2. Moreover, the “Activity A.f. (relative activity in relation to Ard1)” value with Aspergillus fumigatus was found to be 0.5.

These data come from patent publication US20030208035A1, “Antifungal and/or antibacterial peptides, preparation methods, compositions containing same and methods of treating mammals and/or plants” (priority 2000, published 2003).
